Kd data for 23 molecules are collected here from patent US9226929B2, “Pharmaceutically active disubstituted triazine derivatives” (Bayer Intellectual Property GMBH, priority 2011, dated 2016).

The target of one experiment is T1, CDK9/Cyclin T1 (Homo sapiens, UniProt P50750).
T1 construct: His; purchased Invitrogen
Nature of the experiment: LanthaScreen Eu Kinase Binding Assay, CDK9/Cyclin T1. The conditions noted are these: tracer 236, read-out: CDK9/Cyclin T1 (activity range), Kd. On the procedure: (§1) This protocol describes how the LanthaScreen Eu Kinase Binding Assay was performed to determine dissociation constants (Kd) of compounds of general formula (I) and CDK/Cyclin complexes. The principle behind this assay is based upon the binding and displacement of an Alexa Fluor 647-labeled tracer, which binds to the active site of kinases. Binding of the tracer to the kinase is detected using a Eu-labeled antibody. Simultaneous binding of both the tracer and antibody to the kinase gives rise to a FRET-signal. Binding of an inhibitor to the kinase competes for binding with the tracer, resulting in a loss of FRET.
(§2) The compounds of general formula (I) summarized in Table 1 were diluted from a 10 mM DMSO stock solution 1:10 in a total volume of 15 μL DMSO. This compound predilution was then serial diluted 1:3 over 8 steps in DMSO and briefly spun down. Each compound solution was now diluted 1:33.33 in kinase buffer (HEPES: 20 mM, pH: 8.0; MgCl2: 10 mM; DTT: 1 mM; Brij-35: 0,01%), mixed thoroughly and spun down. For every sample, 5 μL of the diluted compound were mixed with 5 μL tracer working solution (e.g. 60 nM tracer 236 in kinase buffer for CDK2/Cyclin A) and 5 μL CDK/Cyclin/Anti-GST-AB-working solution (e.g. 15 nM CDK2/Cyclin A, 1:250 dilution of Anti-GST-AB in kinase buffer) in a well of a small volume 384 well plate (Corning Incorporated, Corning, N.Y., USA; order no. 3673). The tracer concentration was adjusted to its dissociation constant (Kd) for the CDK/Cyclin, which was 30 nM for CDK2/Cyclin A, CDK7/Cyclin H and CDK9/Cyclin T1, 20 nM for CDK8/Cyclin C, and 35 nM for CDK9/Cyclin K. For negative controls, in each well 5 μL of DMSO working solution (3% DMSO diluted in kinase buffer) was mixed with 5 μL Anti-GST-AB working solution (e.g. 1:250 dilution of Anti-GST-AB in kinase buffer for CDK2/Cyclin A) and 5 μL Tracer working solution (e.g. 60 nM Tracer 236 in kinase buffer for CDK2/Cyclin A). For positive controls, in each well 5 μL of DMSO working solution (3% DMSO diluted in kinase buffer) was mixed with 5 μL CDK/Cyclin/Anti-GST-AB-working solution: (e.g. 15 nM CDK2/Cyclin A, 1:250 dilution of Anti-GST-AB in kinase buffer) and 5 μL Tracer working solution (e.g. 60 nM Tracer 236 in kinase buffer for CDK2/Cyclin A). Positive and negative controls were calculated from at least 8 different sample wells. The 384 well plates were mixed in a Teleshaker plate mixer (Beckman Coulter, Brea, Calif., USA) at 2000 rpm for 40 sec, and incubated for 1 h at room temperature before reading. The FRET signal was measured at 340 nm excitation, 665 nm and 615 nm emission (for the kinase tracer and LanthaScreen Eu-AB, respectively) with an Envision spectrophotometer (Perkin Elmer, Waltham, Mass., USA) with […]. Kd values were determined from the sigmoidal dose response curves with the software Quattro Workflow (Quattro GmbH, Munich, Germany).

For a further experiment, the target named is T2, CDK9/Cyclin K (Homo sapiens, UniProt P50750).
T2 construct: His; purchased Invitrogen
As to the kind of experiment: LanthaScreen Eu Kinase Binding Assay, CDK9/Cyclin K. The conditions noted are these: tracer 236, read-out: CDK9/Cyclin K (activity range), Kd. On the procedure: as §1, §2

In the next experiment the target is T3, CDK7/CyclinH/MAT1 (Homo sapiens, UniProt P50613).
T3 construct: His; purchased Carna Biosciences
Nature of the experiment: LanthaScreen Eu Kinase Binding Assay, CDK7. The conditions noted are these: tracer 236, read-out: CDK7 (activity range), Kd. On the procedure:
as §1, §2

T2 sequence (P50750 whole entry): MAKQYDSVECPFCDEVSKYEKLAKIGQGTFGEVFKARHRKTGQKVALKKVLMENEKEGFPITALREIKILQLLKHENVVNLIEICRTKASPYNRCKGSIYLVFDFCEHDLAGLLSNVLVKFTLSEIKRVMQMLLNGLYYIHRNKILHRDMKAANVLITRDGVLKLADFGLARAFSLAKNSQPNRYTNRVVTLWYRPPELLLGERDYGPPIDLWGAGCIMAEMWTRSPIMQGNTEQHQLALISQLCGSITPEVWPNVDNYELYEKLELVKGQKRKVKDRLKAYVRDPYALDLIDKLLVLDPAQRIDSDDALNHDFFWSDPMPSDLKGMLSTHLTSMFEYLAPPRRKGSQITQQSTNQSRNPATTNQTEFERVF
T2 sequence (O75909 1-357 isoform O75909-1 partner): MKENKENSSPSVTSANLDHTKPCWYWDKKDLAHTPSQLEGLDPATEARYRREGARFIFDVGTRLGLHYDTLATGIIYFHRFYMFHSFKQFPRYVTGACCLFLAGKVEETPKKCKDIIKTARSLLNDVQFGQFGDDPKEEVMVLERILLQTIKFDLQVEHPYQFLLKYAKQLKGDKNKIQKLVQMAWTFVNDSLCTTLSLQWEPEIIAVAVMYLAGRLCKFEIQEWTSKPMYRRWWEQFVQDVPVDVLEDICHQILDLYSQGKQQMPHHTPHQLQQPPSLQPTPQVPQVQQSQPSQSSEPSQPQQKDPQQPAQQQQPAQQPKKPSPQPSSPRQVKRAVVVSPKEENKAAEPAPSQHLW
T1 sequence (P50750 whole entry): as the sequence (P50750 whole entry) above
T1 sequence (O60563 whole entry partner): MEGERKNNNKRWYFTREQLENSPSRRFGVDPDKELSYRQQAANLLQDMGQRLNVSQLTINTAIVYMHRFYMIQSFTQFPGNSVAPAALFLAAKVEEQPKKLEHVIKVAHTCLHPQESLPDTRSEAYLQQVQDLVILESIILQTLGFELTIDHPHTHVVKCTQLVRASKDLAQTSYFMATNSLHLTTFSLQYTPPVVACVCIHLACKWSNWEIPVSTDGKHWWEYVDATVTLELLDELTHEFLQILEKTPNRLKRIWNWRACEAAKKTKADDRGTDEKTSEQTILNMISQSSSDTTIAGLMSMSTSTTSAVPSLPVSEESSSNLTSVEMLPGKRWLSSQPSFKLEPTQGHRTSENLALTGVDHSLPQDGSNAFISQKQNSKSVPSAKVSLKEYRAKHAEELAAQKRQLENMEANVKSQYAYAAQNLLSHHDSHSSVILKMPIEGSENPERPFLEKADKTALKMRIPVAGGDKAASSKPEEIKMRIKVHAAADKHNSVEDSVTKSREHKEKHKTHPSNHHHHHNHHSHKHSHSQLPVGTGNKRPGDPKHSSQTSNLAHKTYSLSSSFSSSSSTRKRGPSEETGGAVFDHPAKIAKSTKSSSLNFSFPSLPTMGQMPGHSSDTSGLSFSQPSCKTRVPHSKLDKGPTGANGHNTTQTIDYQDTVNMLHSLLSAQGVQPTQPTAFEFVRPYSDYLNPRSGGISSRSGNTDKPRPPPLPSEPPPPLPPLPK
T3 sequence (P50613 whole entry): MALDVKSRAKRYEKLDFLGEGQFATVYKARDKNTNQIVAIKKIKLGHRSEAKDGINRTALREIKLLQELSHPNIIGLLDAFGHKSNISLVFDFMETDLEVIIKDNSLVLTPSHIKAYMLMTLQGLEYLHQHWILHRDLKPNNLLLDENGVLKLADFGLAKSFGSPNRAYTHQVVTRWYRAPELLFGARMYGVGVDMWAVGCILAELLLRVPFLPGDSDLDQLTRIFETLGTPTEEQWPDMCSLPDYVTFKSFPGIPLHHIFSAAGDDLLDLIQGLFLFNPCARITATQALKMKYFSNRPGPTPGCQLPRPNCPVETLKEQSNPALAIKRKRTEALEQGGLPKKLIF
T3 sequence (P51946 whole entry partner): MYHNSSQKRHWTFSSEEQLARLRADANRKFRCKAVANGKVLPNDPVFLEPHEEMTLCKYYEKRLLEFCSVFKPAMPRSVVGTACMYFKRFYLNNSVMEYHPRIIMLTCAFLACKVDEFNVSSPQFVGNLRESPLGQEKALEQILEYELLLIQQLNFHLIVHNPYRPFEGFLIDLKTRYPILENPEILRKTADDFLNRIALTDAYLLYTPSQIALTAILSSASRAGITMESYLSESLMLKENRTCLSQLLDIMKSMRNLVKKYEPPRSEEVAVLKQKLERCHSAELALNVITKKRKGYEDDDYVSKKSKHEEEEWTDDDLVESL
T3 sequence (P51948 whole entry partner): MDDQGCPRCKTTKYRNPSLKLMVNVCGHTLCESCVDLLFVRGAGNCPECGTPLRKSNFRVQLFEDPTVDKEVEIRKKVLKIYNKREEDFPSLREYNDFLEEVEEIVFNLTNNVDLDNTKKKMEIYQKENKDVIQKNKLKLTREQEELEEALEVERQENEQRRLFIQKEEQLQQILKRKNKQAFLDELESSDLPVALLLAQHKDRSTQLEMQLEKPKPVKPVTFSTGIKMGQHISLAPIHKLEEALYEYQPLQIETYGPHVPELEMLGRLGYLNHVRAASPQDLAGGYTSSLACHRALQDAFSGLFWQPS

Take `CN1CCN(c2ncnc(Nc3cccc(CS(N)(=O)=O)c3)n2)CC1` [Compound B12, 3-[(4-(4-Methylpiperazin-1-yl)-1,3,5-triazin-2-yl)amino]-benzenemethanesulfonamide]: the Kd at CDK9/Cyclin T1, on CDK9/Cyclin K and on CDK7/CyclinH/MAT1 was over 10 µM each time.

As to `COC(=O)[C@H]1CCCCN1c1ncnc(Nc2cccc(CS(N)(=O)=O)c2)n1` [Compound B6, (R)-Methyl 1-[4-((3-(Sulfamoylmethyl)phenyl)amino)-1,3,5-triazin-2-yl]piperidine-2-carboxylate], the values for the Kd on CDK9/Cyclin T1, on CDK9/Cyclin K and at CDK7/CyclinH/MAT1 were under 0.1 µM, 0.1 to 1 µM and over 10 µM, respectively.

As for `NS(=O)(=O)Cc1cccc(Nc2ncnc(N3Cc4cccnc4C3)n2)c1` [Compound B48, 3-[(4-(5H-Pyrrolo[3,4-b]pyridin-6(7H)-yl)-1,3,5-triazin-2-yl)amino]-benzenemethanesulfonamide], the Kd was 1 to 10 µM on CDK9/Cyclin T1, 0.1 to 1 µM at CDK9/Cyclin K and over 10 µM on CDK7/CyclinH/MAT1.

With `CC(C)(C)OC(=O)NCC1CCCCN1c1ncnc(Nc2cccc(CS(N)(=O)=O)c2)n1` (racemic) [Compound B7, rac-tert-Butyl[(1-(4-((3-(Sulfamoylmethyl)phenyl)amino)-1,3,5-triazin-2-yl)piperidine-2-yl)methyl]carbamate], the Kd at CDK9/Cyclin T1, at CDK9/Cyclin K and on CDK7/CyclinH/MAT1 was over 10 µM each time.

As for `C[C@@H]1CCCN1c1ncnc(Nc2cccc(CS(N)(=O)=O)c2)n1` [Compound B15, (R)-3-[(4-(2-Methylpyrrolidin-1-yl)-1,3,5-triazin-2-yl)amino]-benzenemethanesulfonamide], the figures for the Kd on CDK9/Cyclin T1, at CDK9/Cyclin K and at CDK7/CyclinH/MAT1 were 0.1 to 1 µM, 1 to 10 µM and over 10 µM, respectively.

Take `Nc1cccc2c1CCN(c1ncnc(Nc3cccc(CS(N)(=O)=O)c3)n1)C2` [Compound B41, 3-[(4-(5-Amino-3,4-dihydroisoquinolin-2(1H)-yl)-1,3,5-triazin-2-yl)amino]benzenemethanesulfonamide]: the Kd on CDK9/Cyclin T1 is 1 to 10 µM; on CDK9/Cyclin K it was 1 to 10 µM; at CDK7/CyclinH/MAT1, over 10 µM.

Take `NS(=O)(=O)Cc1cccc(Nc2ncnc(N3CCC[C@H]3C(F)(F)F)n2)c1` [Compound B16, (S)-3-[(4-(2-(Trifluoromethyl)pyrrolidin-1-yl)-1,3,5-triazin-2-yl)amino]-benzenemethanesulfonamide]: the Kd at CDK9/Cyclin T1 was 0.1 to 1 µM; at CDK9/Cyclin K, 1 to 10 µM; at CDK7/CyclinH/MAT1, over 10 µM.

As for `NS(=O)(=O)Cc1cccc(Nc2ncnc(N3CCC[C@@H]3COc3ccccc3)n2)c1` [Compound B28, (R)-3-[(4-(2-(Phenoxymethyl)pyrrolidin-1-yl)-1,3,5-triazin-2-yl)amino]-benzenemethanesulfonamide], the Kd on CDK9/Cyclin T1 is 1 to 10 µM; at CDK9/Cyclin K, 1 to 10 µM; at CDK7/CyclinH/MAT1, over 10 µM.

For `NS(=O)(=O)Cc1cccc(Nc2ncnc(N3CCc4ncncc4C3)n2)c1` [Compound B39, 3-[(4-(7,8-Dihydropyrido[4,3-d]pyrimidin-6(5H)-yl)-1,3,5-triazin-2-yl)amino]benzenemethanesulfonamide], the Kd at CDK9/Cyclin T1 was 0.1 to 1 µM; on CDK9/Cyclin K, 1 to 10 µM; at CDK7/CyclinH/MAT1 it was over 10 µM.

Consider `COC[C@@H]1CC[C@@H](COC)N1c1ncnc(Nc2cccc(CS(N)(=O)=O)c2)n1` [Compound B20], for which the Kd on CDK9/Cyclin T1, on CDK9/Cyclin K and at CDK7/CyclinH/MAT1 was over 10 µM each time.

Turning to `NS(=O)(=O)Cc1cccc(Nc2ncnc(N3CCC(F)(F)CC3)n2)c1` [Compound B2, 3-[(4-(4,4-Difluoropiperidin-1-yl)-1,3,5-triazin-2-yl)amino]-benzenemethanesulfonamide], the Kd is 0.1 to 1 µM on CDK9/Cyclin T1, 0.1 to 1 µM at CDK9/Cyclin K and over 10 µM on CDK7/CyclinH/MAT1.

Regarding `NS(=O)(=O)Cc1cccc(Nc2ncnc(N3CCCC3)n2)c1` [Compound B14, 3-[(4-(Pyrrolidin-1-yl)-1,3,5-triazin-2-yl)amino]benzenemethane sulfonamide], the Kd is 0.1 to 1 µM at CDK9/Cyclin T1, 1 to 10 µM at CDK9/Cyclin K and over 10 µM on CDK7/CyclinH/MAT1.

Consider `COCC1CCCCN1c1ncnc(Nc2cccc(CS(N)(=O)=O)c2)n1` (racemic) [Compound B4, rac-3-[(4-(2-Methoxymethylpiperidin-1-yl)-1,3,5-triazin-2-yl)amino]-benzenemethanesulfonamide], for which the Kd on CDK9/Cyclin T1 was 0.1 to 1 µM; at CDK9/Cyclin K it was 0.1 to 1 µM; at CDK7/CyclinH/MAT1, over 10 µM.

For `NS(=O)(=O)Cc1cccc(Nc2ncnc(N3CCCCC3c3ccccc3)n2)c1` (racemic) [Compound B9, rac-3-[(4-(2-Phenylpiperidin-1-yl)-1,3,5-triazin-2-yl)amino]-benzenemethanesulfonamide], the Kd at CDK9/Cyclin T1 is 0.1 to 1 µM; at CDK9/Cyclin K, 0.1 to 1 µM; on CDK7/CyclinH/MAT1, over 10 µM.

For the molecule `NS(=O)(=O)Cc1cccc(Nc2ncnc(N3Cc4cncnc4C3)n2)c1` [Compound B50, 3-[(4-(5H-Pyrrolo[3,4-d]pyrimidin-6(7H)-yl)-1,3,5-triazin-2-yl)amino]-benzenemethanesulfonamide], the Kd at CDK9/Cyclin T1 was 0.1 to 1 µM; on CDK9/Cyclin K, 1 to 10 µM; on CDK7/CyclinH/MAT1, over 10 µM.

Take `NS(=O)(=O)Cc1cccc(Nc2ncnc(N3CCc4sccc4C3)n2)c1` [Compound B43, 3-[(4-(6,7-Dihydrothieno[3,2-c]pyridin-5(4H)-yl)-1,3,5-triazin-2-yl)amino]benzenemethanesulfonamide]: the Kd on CDK9/Cyclin T1 lay in the range of 0.1 to 1 µM; on CDK9/Cyclin K it was 0.1 to 1 µM; on CDK7/CyclinH/MAT1 it was 1 to 10 µM.

With `NS(=O)(=O)Cc1cccc(Nc2ncnc(N3CCNCC3)n2)c1` [Compound B11, 3-[(4-(piperazin-1-yl)-1,3,5-triazin-2-yl)amino]benzenemethane sulfonamide], the Kd on CDK9/Cyclin T1, at CDK9/Cyclin K and at CDK7/CyclinH/MAT1 was over 10 µM each time.

Regarding `NS(=O)(=O)Cc1cccc(Nc2ncnc(N3CCCC(F)(F)C3)n2)c1` [Compound B3, 3-[(4-(3,3-Difluoropiperidin-1-yl)-1,3,5-triazin-2-yl)amino]-benzenemethanesulfonamide], the results for the Kd at CDK9/Cyclin T1, on CDK9/Cyclin K and on CDK7/CyclinH/MAT1 were 0.1 to 1 µM, 0.1 to 1 µM and over 10 µM, respectively.

`COC(=O)[C@@H]1CCCN1c1ncnc(Nc2cccc(CS(N)(=O)=O)c2)n1` [Compound B22, (S)-Methyl 1-[4-((3-(Sulfamoylmethyl)phenyl)amino)-1,3,5-triazin-2-yl]pyrrolidine-2-carboxylate]: the Kd on CDK9/Cyclin T1, at CDK9/Cyclin K and at CDK7/CyclinH/MAT1 was over 10 µM in each case.

Regarding `NC(=O)[C@H]1CCCN1c1ncnc(Nc2cccc(CS(N)(=O)=O)c2)n1` [Compound B23, (R)-1-[4-((3-(Sulfamoylmethyl)phenyl)amino)-1,3,5-triazin-2-yl]pyrrolidine-2-carboxamide], the Kd on CDK9/Cyclin T1, on CDK9/Cyclin K and on CDK7/CyclinH/MAT1 was over 10 µM throughout.

Take `NS(=O)(=O)Cc1cccc(Nc2ncnc(N3CCc4ccccc4C3)n2)c1` [Compound B40, 3-[(4-(3,4-Dihydroisoquinolin-2(1H)-yl)-1,3,5-triazin-2-yl)amino]-benzenemethanesulfonamide]: the Kd is 1 to 10 µM on CDK9/Cyclin T1, 1 to 10 µM on CDK9/Cyclin K and over 10 µM on CDK7/CyclinH/MAT1.

Consider `NS(=O)(=O)Cc1cccc(Nc2ncnc(N3CCn4ccnc4C3)n2)c1` [Compound B46, 3-[(4-(5,6-Dihydroimidazo[1,2-a]pyrazin-7(8H)-yl)-1,3,5-triazin-2-yl)amino]benzenemethanesulfonamide], for which the Kd at CDK9/Cyclin T1 was 1 to 10 µM; at CDK9/Cyclin K, 1 to 10 µM; at CDK7/CyclinH/MAT1 it was over 10 µM.

For the molecule `NS(=O)(=O)Cc1cccc(Nc2ncnc(N3CCNCC3CO)n2)c1` (racemic) [Compound B13, rac-3-[(4-(2-(Hydroxymethyl)piperazin-1-yl)-1,3,5-triazin-2-yl)amino]benzenemethanesulfonamide], the Kd on CDK9/Cyclin T1 and on CDK9/Cyclin K was over 10 µM in each case.
